From paper PMC6556873, “Rapid Covalent-Probe Discovery by Electrophile-Fragment Screening” (Journal of the American Chemical Society, 2019) come the findings set out here.

Read-outs that look alike come from different tables or passages of the source.

Data set [1] has as its target T1, BSA (Bos taurus, UniProt P02769).
T1 construct: gene ALB
Also on record: Intact protein LC/MS covalent labelling, fragments in pools of five, 200 uM each, 4 °C. The settings on record: 24 h, 4 °C, pool of five; 200 µM; covalent.

Data set [2] deals with T2, NUDT7 (Homo sapiens, UniProt P0C024).
T2 construct: residues 14-235, E. coli, pNIC28-Bsa4, N-terminal His6 tag removed by TEV, construct 26672 Da
T2 sequence (P0C024 14-235): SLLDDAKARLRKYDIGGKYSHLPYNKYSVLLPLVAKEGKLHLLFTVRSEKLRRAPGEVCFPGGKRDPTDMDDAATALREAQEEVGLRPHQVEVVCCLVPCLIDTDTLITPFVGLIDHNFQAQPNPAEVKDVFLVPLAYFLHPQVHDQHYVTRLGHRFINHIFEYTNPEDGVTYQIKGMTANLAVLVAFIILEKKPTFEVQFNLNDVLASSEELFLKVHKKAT
Also on record: Intact protein LC/MS covalent labelling, fragments in pools of five, 200 uM each, 4 °C. The conditions noted are these: 24 h, 4 °C, pool of five; 200 µM; covalent.

Data set [3] addresses T3, OTUB2 (OTUB2A) (Homo sapiens, UniProt Q96DC9).
T3 construct: full length residues 1-234, E. coli BL21(DE3)-R3, His tag removed by TEV, construct 27312 Da
T3 sequence (Q96DC9 1-234): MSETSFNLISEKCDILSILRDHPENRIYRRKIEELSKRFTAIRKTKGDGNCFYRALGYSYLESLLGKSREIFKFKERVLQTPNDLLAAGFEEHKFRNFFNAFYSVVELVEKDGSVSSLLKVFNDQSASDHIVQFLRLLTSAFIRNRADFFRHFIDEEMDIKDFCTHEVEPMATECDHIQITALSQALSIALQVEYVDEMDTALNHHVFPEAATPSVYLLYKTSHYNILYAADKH
Further details: Intact protein LC/MS covalent labelling, fragments in pools of five, 200 uM each, 4 °C. The conditions noted are these: 24 h, 4 °C, pool of five; 200 µM; covalent.

Data set [4] has as its target T4, PCAF (Homo sapiens, UniProt Q92831).
T4 construct: gene KAT2B
Further details: Intact protein LC/MS covalent labelling, fragments in pools of five, 200 uM each, 4 °C. The conditions noted are these: 24 h, 4 °C, pool of five; 200 µM; covalent.

Data set [5] can be described thus: in vitro. Further details: species or system CCD841, HEK293. The conditions noted are these: human, hb2 cells, read-out: HB-2 Cells Viability (%).
The nature of data set [6]: in vitro. The settings on record: human, ccd841 cells. Further details: species or system HB2, HEK293.
Data set [7] in a line: in vitro. Further details: species or system HB2, CCD841. The settings on record: human, hek293 cells.

T1 sequence (P02769 whole entry): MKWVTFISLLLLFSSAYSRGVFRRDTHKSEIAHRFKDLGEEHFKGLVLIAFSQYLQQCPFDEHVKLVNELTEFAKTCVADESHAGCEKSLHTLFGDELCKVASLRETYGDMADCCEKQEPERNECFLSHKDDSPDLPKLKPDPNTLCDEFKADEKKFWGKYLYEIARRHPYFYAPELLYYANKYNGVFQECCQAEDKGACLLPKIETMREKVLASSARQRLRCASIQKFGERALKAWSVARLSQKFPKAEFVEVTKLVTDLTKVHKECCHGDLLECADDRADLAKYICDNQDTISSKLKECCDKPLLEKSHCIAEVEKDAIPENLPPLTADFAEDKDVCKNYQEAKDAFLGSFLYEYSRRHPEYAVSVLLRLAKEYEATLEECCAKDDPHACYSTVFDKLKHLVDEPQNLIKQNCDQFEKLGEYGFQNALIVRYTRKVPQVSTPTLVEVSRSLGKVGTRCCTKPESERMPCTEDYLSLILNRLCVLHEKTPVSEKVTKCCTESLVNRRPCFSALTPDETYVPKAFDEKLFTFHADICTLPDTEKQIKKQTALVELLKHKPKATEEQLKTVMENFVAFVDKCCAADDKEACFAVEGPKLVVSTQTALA
T4 sequence (Q92831 whole entry): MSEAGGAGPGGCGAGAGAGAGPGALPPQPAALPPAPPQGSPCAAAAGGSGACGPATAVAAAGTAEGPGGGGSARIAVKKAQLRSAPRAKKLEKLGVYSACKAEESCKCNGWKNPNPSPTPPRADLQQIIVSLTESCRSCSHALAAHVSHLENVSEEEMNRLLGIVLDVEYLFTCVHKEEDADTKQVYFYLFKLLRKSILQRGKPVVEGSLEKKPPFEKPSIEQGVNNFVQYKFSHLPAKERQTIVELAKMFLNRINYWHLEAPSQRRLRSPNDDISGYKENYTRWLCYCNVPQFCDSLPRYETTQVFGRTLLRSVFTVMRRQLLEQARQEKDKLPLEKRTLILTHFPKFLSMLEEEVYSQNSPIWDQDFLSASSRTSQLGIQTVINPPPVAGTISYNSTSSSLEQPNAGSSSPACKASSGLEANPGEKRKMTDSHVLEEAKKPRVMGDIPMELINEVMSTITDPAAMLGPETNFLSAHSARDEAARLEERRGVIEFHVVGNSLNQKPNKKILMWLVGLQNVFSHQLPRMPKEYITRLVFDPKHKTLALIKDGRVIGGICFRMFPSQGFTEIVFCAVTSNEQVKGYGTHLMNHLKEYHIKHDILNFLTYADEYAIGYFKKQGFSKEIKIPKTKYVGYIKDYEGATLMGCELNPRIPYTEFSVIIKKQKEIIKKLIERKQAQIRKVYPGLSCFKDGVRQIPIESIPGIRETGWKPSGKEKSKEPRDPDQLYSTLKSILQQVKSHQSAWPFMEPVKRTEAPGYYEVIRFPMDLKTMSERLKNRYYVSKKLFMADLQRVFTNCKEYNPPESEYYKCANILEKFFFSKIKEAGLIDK

Compound `CC1CC(C)CN(C(=O)CCl)C1` (centres unmarked) [PCM-0102789] came in with a BSA in data set [1] of 0. The compound also displayed an NUDT7 in data set [2] of 0. In data set [3], this compound had an OTUB2 of 0.08. In data set [4], this compound came in with a PCAF of 0. The viability at 48 h, 10 µM in data set [5] came out at 102%; in data set [6], 83.1%; in data set [7] it was 61.8%.
`O=C(CCl)NCc1cc(F)cc(F)c1` [PCM-0102790] registered a BSA in data set [1] of 0. Further, the NUDT7 in data set [2] was determined as 0. In data set [3], this compound returned an OTUB2 of 0. The compound also showed a PCAF in data set [4] of 0. The viability at 48 h, 10 µM was determined as 98.6% in data set [5], 71.3% in data set [6] and 74.1% in data set [7].
In data set [1], `CC(c1nc2ccccc2s1)N(C)C(=O)CCl` (centres unmarked) [PCM-0102793] yielded a BSA of 0. The compound further yielded an NUDT7 in data set [2] of 0. Besides, in data set [3], the OTUB2 is on record as 0.19. This compound also showed a PCAF in data set [4] of 0. The viability at 48 h, 10 µM in data set [5] was found to be 4.3%; in data set [6], 26.1%; in data set [7], 1%.
The compound `O=C(CCl)NCC1CCCc2ccccc21` (centres unmarked) [PCM-0102794] returned a BSA in data set [1] of 0. The compound also yielded an NUDT7 in data set [2] of 0. In data set [3], the OTUB2 is recorded as 0.34. Further, in data set [4], the PCAF is reported as 0. For the same compound, the viability at 48 h, 10 µM in data set [5] was determined as 67.3%; in data set [6], 66.7%; in data set [7], 53.5%.
Compound `CC1CN(C(=O)CCl)CC(C)O1` (centres unmarked) [PCM-0102796] gave a BSA in data set [1] of 0. The NUDT7 in data set [2] was 0. Also, in data set [3], the OTUB2 is 0. The compound also gave a PCAF in data set [4] of 0. Further, the viability at 48 h, 10 µM in data set [5] was found to be 92.9%; in data set [6] it was 76.2%; in data set [7], 66.2%.
With `O=C(CCl)NCc1nc2ccccc2s1` [PCM-0102803], the BSA in data set [1] was 0. In addition, the NUDT7 in data set [2] is on record as 0. This compound also gave an OTUB2 in data set [3] of 0.37. Moreover, the PCAF in data set [4] is 0. Further, the viability at 48 h, 10 µM was found to be 55.2% in data set [5], 63.8% in data set [6] and 43% in data set [7].
Regarding `C=CC(=O)N1CCN(C(=O)c2ccc(Br)o2)CC1` [PCM-0102804], the BSA in data set [1] is recorded as 0. Also, the NUDT7 in data set [2] was determined as 0. In data set [3], the OTUB2 was determined as 0. In addition, in data set [4], the PCAF worked out at 0. Besides, the values for the viability at 48 h, 10 µM in data set [5], in data set [6] and in data set [7] were 93.5%, 102% and 84.7%, respectively.
On to `C=CC(=O)N1CCN(c2cc(C)nc(C)n2)CC1` [PCM-0102806], for which the BSA in data set [1] was 0. In addition, the NUDT7 in data set [2] came to 0. Besides, in data set [3], the OTUB2 was 0. In data set [4], this compound displayed a PCAF of 0. In addition, the results for the viability at 48 h, 10 µM in data set [5], in data set [6] and in data set [7] were 101%, 105% and 78.9%, respectively.
`C=CC(=O)N1CCCC2(CNC(=O)O2)C1` (centres unmarked) [PCM-0102808]: the BSA in data set [1] is 0. The compound also came in with an NUDT7 in data set [2] of 0. In addition, in data set [3], the OTUB2 is on record as 0.13. Moreover, the PCAF in data set [4] was 0. Moreover, the viability at 48 h, 10 µM in data set [5] is 103%; in data set [6], 113%; in data set [7] it was 102%.
In data set [1], `O=C(CCl)Nc1nc(-c2ccc(F)cc2)cs1` [PCM-0102809] displayed a BSA of 0. The NUDT7 in data set [2] is 0.37. Besides, the OTUB2 in data set [3] worked out at 0.21. Also, the PCAF in data set [4] is recorded as 0. In addition, the viability at 48 h, 10 µM turned out to be 5.1% in data set [5], 63.1% in data set [6] and 1.7% in data set [7].
In data set [1], `CNC(=O)C1CCN(C(=O)CCl)CC1` [PCM-0102815] yielded a BSA of 0. The NUDT7 in data set [2] turned out to be 0. The OTUB2 in data set [3] was 0.08. In addition, in data set [4], the PCAF is on record as 0. The viability at 48 h, 10 µM in data set [5] was determined as 92.2%; in data set [6], 95.1%; in data set [7], 77.1%.
`CC(C)(C)NC(=O)CNC(=O)CCl` [PCM-0102817] yielded a BSA in data set [1] of 0. For the same compound, in data set [2], the NUDT7 was 0. The compound also came in with an OTUB2 in data set [3] of 0.41. In addition, the PCAF in data set [4] is reported as 0. In addition, the viability at 48 h, 10 µM was found to be 102% in data set [5], 87.5% in data set [6] and 101% in data set [7].
In data set [1], `O=C(CCl)NCC12CC3CC(CC(Br)(C3)C1)C2` [PCM-0102819] registered a BSA of 0. In data set [2], the NUDT7 was determined as 0.05. This compound registered an OTUB2 in data set [3] of 0.63. This compound also showed a PCAF in data set [4] of 0. Further, the viability at 48 h, 10 µM was determined as 109% in data set [5], 95% in data set [6] and 99.3% in data set [7].
For the compound `CC1CCc2ccccc2N1C(=O)CCl` (centres unmarked) [PCM-0102822], the BSA in data set [1] was found to be 0. In data set [2], the NUDT7 is 0. In data set [3], this compound returned an OTUB2 of 0. This compound showed a PCAF in data set [4] of 0. The viability at 48 h, 10 µM in data set [5] was found to be 92.2%; in data set [6], 39.6%; in data set [7], 54.7%.
In turn, `O=C(CCl)N1CCC2(CC1)OCCO2` [PCM-0102823] came in with a BSA in data set [1] of 0. Also, in data set [2], the NUDT7 amounted to 0. In data set [3], this compound yielded an OTUB2 of 0. In data set [4], this compound showed a PCAF of 0. For the same compound, the viability at 48 h, 10 µM in data set [5] came out at 98.2%; in data set [6], 99.2%; in data set [7], 91.5%.
`C=CC(=O)NCc1cccc(C(F)(F)F)c1` [PCM-0102825] yielded a BSA in data set [1] of 0. In data set [2], the NUDT7 was 0. This compound returned an OTUB2 in data set [3] of 0. Further, the PCAF in data set [4] was 0. Moreover, the viability at 48 h, 10 µM was determined as 97.4% in data set [5], 107% in data set [6] and 82.3% in data set [7].
Turning to `O=C(CCl)N1CCCC2CCCCC21` (centres unmarked) [PCM-0102826], the BSA in data set [1] is 0. This compound also yielded an NUDT7 in data set [2] of 0.07. In data set [3], this compound returned an OTUB2 of 0. For the same compound, in data set [4], the PCAF turned out to be 0. For the same compound, the results for the viability at 48 h, 10 µM in data set [5], in data set [6] and in data set [7] were 33.7%, 32.5% and 27.9%, respectively.
For `COC(=O)C1(NC(=O)CCl)CCC(C)CC1` (centres unmarked) [PCM-0102827], the BSA in data set [1] is given as 0. The same compound registered an NUDT7 in data set [2] of 0. Besides, in data set [3], the OTUB2 amounted to 0. Besides, the PCAF in data set [4] was 0. Besides, the viability at 48 h, 10 µM in data set [5] was 102%; in data set [6], 96.8%; in data set [7], 93.6%.
Take `CCC1CCCCN1C(=O)CCl` (centres unmarked) [PCM-0102828]: the BSA in data set [1] is given as 0. Besides, the NUDT7 in data set [2] came to 0.04. In addition, in data set [3], the OTUB2 stood at 0. In data set [4], this compound returned a PCAF of 0. For the same compound, the viability at 48 h, 10 µM in data set [5] was found to be 85.9%; in data set [6], 80.9%; in data set [7], 69.4%.
In data set [1], `CC1CN(C(=O)CCl)CCO1` (centres unmarked) [PCM-0102830] displayed a BSA of 0. This compound also came in with an NUDT7 in data set [2] of 0. In data set [3], this compound registered an OTUB2 of 0. Also, the PCAF in data set [4] is listed as 0. Further, the viability at 48 h, 10 µM in data set [5] is 101%; in data set [6], 99.1%; in data set [7], 85.9%.

The term viability denotes a read-out of living cells in per cent, often relative to untreated cells.
